Reference: patent US9695155B2, “Herbicidal substituted pyrimidinyloxy benzene compounds” (E. I. DU PONT DE NEMOURS AND COMPANY, priority 2013, dated 2017)

Assays:
Test in all cases: Test E preemergence
[1] = test system: surinam grass; assay type: in vivo, Brachiaria decumbens; settings: for Surinam Grass plant response rating: scale 0 to 100 (0 no effect, 100 complete control)
Excerpt: (§1) Seeds of plant species selected from corn (Zea mays), soybean (Glycine max), velvetleaf (Abutilon theophrasti), lambsquarters (Chenopodium album), wild poinsettia (Euphorbia heterophylla), palmer pigweed (Amaranthus palmeri), waterhemp (common waterhemp, Amaranthus rudis), surinam grass (Brachiaria decumbens), large (Lg) crabgrass (Digitaria sanguinalis), Brazilian crabgrass (Digitaria horizontalis), fall panicum (Panicum dichotomiflorum), giant foxtail (Setaria faberii), green foxtail (Setaria viridis), goosegrass (Eleusine indica), johnsongrass (Sorghum halepense), ragweed (common ragweed, Ambrosia elatior), barnyardgrass (Echinochloa crus-galli), sandbur (southern sandbur, Cenchrus echinatus), arrowleaf sida (Sida rhombifolia), Italian ryegrass (Lolium multiflorum), dayflower (Virginia (VA) dayflower, Commelina virginica), field bindweed (Convolvulus arvensis), morningglory (Ipomoea coccinea), nightshade (eastern black nightshade, Solanum ptycanthum), kochia (Kochia scoparia), yellow nutsedge (Cyperus esculentus), cocklebur (common cocklebur, Xanthium strumarium), smartweed (ladysthumb smartweed, and hairy beggarticks (Bidens pilosa), were planted into a silt loam soil and treated preemergence with test chemicals formulated in a non-phytotoxic solvent mixture which included a surfactant.
(§2) At the same time, plants from these crop and weed species and also horseweed (Canada horseweed, Conyza canadensis), waterhemp_RES1, (ALS & Triazine resistant common waterhemp, Amaranthus rudis), and waterhemp_RES2, (ALS & HPPD resistant common waterhemp, Amaranthus rudis) were planted in pots containing Redi-Earth® planting medium (Scotts Company, 14111 Scottslawn Road, Marysville, Ohio 43041) comprising spaghnum peat moss, vermiculite, wetting agent and starter nutrients were treated with postemergence applications of test chemicals formulated in the same manner. Plants ranged in height from 2 to 18 cm for postemergence treatments (1- to 4-leaf stage). Treated plants and controls were maintained in a greenhouse for 14 to 21 days, after which time all species were compared to controls and visually evaluated. Plant response ratings, summarized in Table E, are based on a scale of 0 to 100 where 0 is no effect and 100 is complete control. A dash (-) response means no test result.

[2] = test system: morningglory; assay type: in vivo, Ipomoea coccinea; settings: for Morningglory plant response rating: scale 0 to 100 (0 no effect, 100 complete control)
Excerpt: as §1, §2

[3] = test system: kochia; assay type: in vivo, Kochia scoparia; settings: for Kochia plant response rating: scale 0 to 100 (0 no effect, 100 complete control)
Excerpt: as §1, §2

[4] = test system: fall panicum; assay type: in vivo, Panicum dichotomiflorum; settings: for Panicum, Fall plant response rating: scale 0 to 100 (0 no effect, 100 complete control)
Excerpt: as §1, §2

[5] = test system: giant foxtail; assay type: in vivo, Setaria faberii; settings: for Foxtail, Giant plant response rating: scale 0 to 100 (0 no effect, 100 complete control)
Excerpt: as §1, §2

[6] = test system: Brazilian crabgrass; assay type: in vivo, Digitaria horizontalis; settings: for Crabgrass, Brazil plant response rating: scale 0 to 100 (0 no effect, 100 complete control)
Excerpt: as §1, §2

[7] = test system: barnyardgrass; assay type: in vivo, Echinochloa crus-galli; settings: for Barnyardgrass plant response rating: scale 0 to 100 (0 no effect, 100 complete control)
Excerpt: as §1, §2

[8] = test system: lambsquarters; assay type: in vivo, Chenopodium album; settings: for Lambsquarters plant response rating: scale 0 to 100 (0 no effect, 100 complete control)
Excerpt: as §1, §2

[9] = test system: velvetleaf; assay type: in vivo, Abutilon theophrasti; settings: for Velvetleaf plant response rating: scale 0 to 100 (0 no effect, 100 complete control)
Excerpt: as §1, §2

[10] = test system: nightshade; assay type: in vivo, Solanum ptycanthum; settings: for Nightshade plant response rating: scale 0 to 100 (0 no effect, 100 complete control)
Excerpt: as §1, §2

[11] = test system: green foxtail; assay type: in vivo, Setaria viridis; settings: for Foxtail, Green plant response rating: scale 0 to 100 (0 no effect, 100 complete control)
Excerpt: as §1, §2

[12] = 125 g ai/ha, scale 0 to 100, 0 no effect, 100 complete control
[13] = preemergence, 125 g ai/ha, scale 0 to 100, 0 no effect, 100 complete control
[14] = 8 g ai/ha, scale 0 to 100, 0 is no effect, 100 is complete control
[15] = 250 g ai/ha, scale 0 to 100, 0 no effect, 100 complete control

Cc1cnc(Oc2cccc(C#N)c2-n2cc(C#N)cn2)nc1 [Compound 90]
Surinam Grass plant response rating ([1]; 16 g ai/ha): 0 | Surinam Grass plant response rating ([1]; 31 g ai/ha): 0 | Surinam Grass plant response rating ([1]; 62 g ai/ha): 0 | Plant response rating, Surinam Grass [1, 12]: 0 | Morningglory plant response rating ([2]; 16 g ai/ha): 0 | Morningglory plant response rating ([2]; 31 g ai/ha): 0 | Morningglory plant response rating ([2]; 62 g ai/ha): 20 | Plant response rating, Morningglory [2, 12]: 35 | Kochia plant response rating ([3]; 16 g ai/ha): 0 | Kochia plant response rating ([3]; 31 g ai/ha): 50 | Kochia plant response rating ([3]; 62 g ai/ha): 100 | Plant response rating, Kochia [3, 12]: 100 | Panicum, Fall plant response rating ([4]; 16 g ai/ha): 0 | Panicum, Fall plant response rating ([4]; 31 g ai/ha): 0 | Panicum, Fall plant response rating ([4]; 62 g ai/ha): 0 | Plant response rating, Panicum, Fall [4, 12]: 80 | Foxtail, Giant plant response rating ([5]; 16 g ai/ha): 0 | Foxtail, Giant plant response rating ([5]; 31 g ai/ha): 0 | Foxtail, Giant plant response rating ([5]; 62 g ai/ha): 15 | Plant response rating, Foxtail, Giant [5, 12]: 50 | Crabgrass, Brazil plant response rating ([6]; 16 g ai/ha): 0 | Crabgrass, Brazil plant response rating ([6]; 31 g ai/ha): 20 | Crabgrass, Brazil plant response rating ([6]; 62 g ai/ha): 50 | Plant response rating, Crabgrass, Brazil [6, 12]: 80 | Barnyardgrass plant response rating ([7]; 16 g ai/ha, preemergence): 0 | Barnyardgrass plant response rating ([7]; 31 g ai/ha, preemergence): 0 | Plant response rating, Barnyardgrass ([7]; Preemergence, 62 g ai/ha, scale 0 to 100, 0 no effect, 100 complete control): 0 | Plant response rating, Barnyardgrass [7, 13]: 40 | Lambsquarters plant response rating ([8]; 16 g ai/ha): 5 | Lambsquarters plant response rating ([8]; 31 g ai/ha): 75 | Lambsquarters plant response rating ([8]; 62 g ai/ha): 50 | Plant response rating, Lambsquarters [8, 12]: 100 | Velvetleaf plant response rating ([9]; 16 g ai/ha): 0 | Velvetleaf plant response rating ([9]; 31 g ai/ha): 20 | Velvetleaf plant response rating ([9]; 62 g ai/ha): 60 | Plant response rating, Velvetleaf [9, 12]: 85 | Nightshade plant response rating ([10]; 16 g ai/ha): 10 | Nightshade plant response rating ([10]; 31 g ai/ha): 10 | Nightshade plant response rating ([10]; 62 g ai/ha): 80 | Plant response rating, Nightshade [10, 12]: 80 | Foxtail, Green plant response rating ([11]; 16 g ai/ha): 0 | Foxtail, Green plant response rating ([11]; 31 g ai/ha): 0 | Foxtail, Green plant response rating ([11]; 62 g ai/ha): 10 | Plant response rating, Foxtail, Green [11, 12]: 50

FC(F)c1cccc(Oc2ncc(Cl)cn2)c1-n1cc(C(F)(F)F)cn1 [Compound 170]
Plant response rating, Surinam Grass [1, 14]: 0 | Surinam Grass plant response rating ([1]; 31 g ai/ha): 0 | Surinam Grass plant response rating ([1]; 62 g ai/ha): 15 | Plant response rating, Surinam Grass [1, 12]: 25 | Plant response rating, Morningglory [2, 14]: 0 | Morningglory plant response rating ([2]; 31 g ai/ha): 10 | Morningglory plant response rating ([2]; 62 g ai/ha): 35 | Plant response rating, Morningglory [2, 12]: 95 | Plant response rating, Kochia [3, 14]: 0 | Kochia plant response rating ([3]; 31 g ai/ha): 30 | Kochia plant response rating ([3]; 62 g ai/ha): 90 | Plant response rating, Kochia [3, 12]: 98 | Plant response rating, Panicum, Fall [4, 14]: 0 | Panicum, Fall plant response rating ([4]; 31 g ai/ha): 20 | Panicum, Fall plant response rating ([4]; 62 g ai/ha): 98 | Plant response rating, Panicum, Fall [4, 12]: 100 | Plant response rating, Foxtail, Giant [5, 14]: 0 | Foxtail, Giant plant response rating ([5]; 16 g ai/ha): 0 | Foxtail, Giant plant response rating ([5]; 31 g ai/ha): 25 | Foxtail, Giant plant response rating ([5]; 62 g ai/ha): 100 | Plant response rating, Foxtail, Giant [5, 12]: 100 | Plant response rating, Crabgrass, Brazil [6, 14]: 30 | Crabgrass, Brazil plant response rating ([6]; 16 g ai/ha): 40 | Crabgrass, Brazil plant response rating ([6]; 31 g ai/ha): 100 | Crabgrass, Brazil plant response rating ([6]; 62 g ai/ha): 100 | Plant response rating, Crabgrass, Brazil [6, 12]: 100 | Plant response rating, Barnyardgrass ([7]; 8 g ai/ha, preemergence, scale 0 to 100, 0 is no effect, 100 is complete control): 0 | Barnyardgrass plant response rating ([7]; 16 g ai/ha, preemergence): 0 | Barnyardgrass plant response rating ([7]; 31 g ai/ha, preemergence): 0 | Barnyardgrass plant response rating ([7]; 62 g ai/ha, preemergence): 35 | Plant response rating, Barnyardgrass [7, 13]: 75 | Plant response rating, Lambsquarters [8, 14]: 0 | Lambsquarters plant response rating ([8]; 31 g ai/ha): 98 | Lambsquarters plant response rating ([8]; 62 g ai/ha): 100 | Plant response rating, Lambsquarters [8, 12]: 100 | Plant response rating, Velvetleaf [9, 14]: 0 | Velvetleaf plant response rating ([9]; 31 g ai/ha): 60 | Velvetleaf plant response rating ([9]; 62 g ai/ha): 65 | Plant response rating, Velvetleaf [9, 12]: 100 | Plant response rating, Nightshade [10, 14]: 0 | Nightshade plant response rating ([10]; 31 g ai/ha): 50 | Nightshade plant response rating ([10]; 62 g ai/ha): 98 | Plant response rating, Nightshade [10, 12]: 98 | Plant response rating, Foxtail, Green [11, 14]: 0 | Foxtail, Green plant response rating ([11]; 16 g ai/ha): 0 | Foxtail, Green plant response rating ([11]; 31 g ai/ha): 40 | Foxtail, Green plant response rating ([11]; 62 g ai/ha): 90 | Plant response rating, Foxtail, Green [11, 12]: 100

Cc1cnc(Oc2cccc(C#N)c2-n2cc(C(F)(F)F)cn2)nc1 [Compound 180]
Surinam Grass plant response rating ([1]; 31 g ai/ha): 10 | Surinam Grass plant response rating ([1]; 62 g ai/ha): 25 | Plant response rating, Surinam Grass [1, 12]: 75 | Plant response rating, Surinam Grass [1, 15]: 100 | Morningglory plant response rating ([2]; 31 g ai/ha): 0 | Morningglory plant response rating ([2]; 62 g ai/ha): 15 | Plant response rating, Morningglory [2, 12]: 60 | Plant response rating, Morningglory [2, 15]: 100 | Kochia plant response rating ([3]; 31 g ai/ha): 0 | Kochia plant response rating ([3]; 62 g ai/ha): 20 | Plant response rating, Kochia [3, 12]: 100 | Plant response rating, Kochia [3, 15]: 100 | Panicum, Fall plant response rating ([4]; 31 g ai/ha): 95 | Panicum, Fall plant response rating ([4]; 62 g ai/ha): 100 | Plant response rating, Panicum, Fall [4, 12]: 100 | Plant response rating, Panicum, Fall [4, 15]: 100 | Foxtail, Giant plant response rating ([5]; 31 g ai/ha): 75 | Foxtail, Giant plant response rating ([5]; 62 g ai/ha): 100 | Plant response rating, Foxtail, Giant [5, 12]: 100 | Plant response rating, Foxtail, Giant [5, 15]: 100 | Crabgrass, Brazil plant response rating ([6]; 31 g ai/ha): 90 | Crabgrass, Brazil plant response rating ([6]; 62 g ai/ha): 100 | Plant response rating, Crabgrass, Brazil [6, 12]: 100 | Plant response rating, Crabgrass, Brazil [6, 15]: 100 | Barnyardgrass plant response rating ([7]; 31 g ai/ha, preemergence): 20 | Barnyardgrass plant response rating ([7]; 62 g ai/ha, preemergence): 98 | Plant response rating, Barnyardgrass [7, 13]: 100 | Plant response rating, Barnyardgrass ([7]; preemergence, 250 g ai/ha, scale 0 to 100, 0 no effect, 100 complete control): 100 | Lambsquarters plant response rating ([8]; 31 g ai/ha): 98 | Lambsquarters plant response rating ([8]; 62 g ai/ha): 100 | Plant response rating, Lambsquarters [8, 12]: 100 | Plant response rating, Lambsquarters [8, 15]: 100 | Velvetleaf plant response rating ([9]; 31 g ai/ha): 35 | Velvetleaf plant response rating ([9]; 62 g ai/ha): 80 | Plant response rating, Velvetleaf [9, 12]: 100 | Plant response rating, Velvetleaf [9, 15]: 100 | Nightshade plant response rating ([10]; 31 g ai/ha): 75 | Nightshade plant response rating ([10]; 62 g ai/ha): 98 | Plant response rating, Nightshade [10, 12]: 98 | Plant response rating, Nightshade [10, 15]: 100 | Foxtail, Green plant response rating ([11]; 31 g ai/ha): 65 | Foxtail, Green plant response rating ([11]; 62 g ai/ha): 100 | Plant response rating, Foxtail, Green [11, 12]: 100 | Plant response rating, Foxtail, Green [11, 15]: 100
